In ChEMBL document CHEMBL2073962, “Wild-type breast cancer resistance protein (BCRP/ABCG2) is a methotrexate polyglutamate transporter” (Cancer Res, 2003):
Blank lines part the entries; values can stand above or below the molecule they belong to.

Tests used:
[1] = target: T1, Broad substrate specificity ATP-binding cassette transporter ABCG2 (Homo sapiens, UniProt Q9UNQ0); test: TP_TRANSPORTER: inhibition of MTX in membrane vesicles from BCRP-expressing MCF7 cells; type: functional, cell membranes, Membrane vesicle
T1 sequence (Q9UNQ0 whole entry): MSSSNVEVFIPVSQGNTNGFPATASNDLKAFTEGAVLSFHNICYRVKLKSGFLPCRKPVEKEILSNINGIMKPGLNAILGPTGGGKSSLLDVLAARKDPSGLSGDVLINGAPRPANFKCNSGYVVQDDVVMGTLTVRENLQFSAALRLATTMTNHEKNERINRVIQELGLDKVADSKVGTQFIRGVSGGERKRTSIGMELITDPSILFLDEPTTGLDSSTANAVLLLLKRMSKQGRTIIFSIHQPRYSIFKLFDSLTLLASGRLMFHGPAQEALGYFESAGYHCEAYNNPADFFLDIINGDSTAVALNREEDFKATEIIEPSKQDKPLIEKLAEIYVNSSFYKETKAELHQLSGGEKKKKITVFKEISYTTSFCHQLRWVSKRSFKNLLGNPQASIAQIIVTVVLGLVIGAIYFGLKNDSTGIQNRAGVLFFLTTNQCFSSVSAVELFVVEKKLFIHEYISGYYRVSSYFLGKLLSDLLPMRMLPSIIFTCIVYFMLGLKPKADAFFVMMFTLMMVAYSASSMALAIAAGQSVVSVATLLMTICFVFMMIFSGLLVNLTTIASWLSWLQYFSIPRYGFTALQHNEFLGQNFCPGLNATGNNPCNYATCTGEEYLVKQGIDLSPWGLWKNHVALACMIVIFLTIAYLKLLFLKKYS

[2] = target: T1, Broad substrate specificity ATP-binding cassette transporter ABCG2; test: (§1) TP_TRANSPORTER: uptake (vesicle) in membrane vesicles from BCRP-expressing MCF7 cells; type: functional, cell membranes
[3] = target: T1, Broad substrate specificity ATP-binding cassette transporter ABCG2; test: TP_TRANSPORTER: inhibition of MTX update by Mitoxantrone at a concentration of 50uM in membrane vesicles from BCRP-expressing MCF7 cells; type: functional, cell membranes, Membrane vesicle; set-up: scale not given: the % may be the effect or the level left; settings: mcf7, 50 µM
[4] = substrate: CN(Cc1cnc2nc(N)nc(N)c2n1)c1ccc(C(=O)N[C@@H](CCC(=O)O)C(=O)O)cc1; test: as §1; type: functional, cell membranes

Molecule: COc1ccc2c3c([nH]c2c1)[C@H](C=C(C)C)N1C(=O)[C@@H]2CCCN2C(=O)[C@@H]1C3 [FUMITREMORGIN]
Activity [1]: inhibitor []

Activity [2]: substrate []
Molecule: CN(Cc1cnc2nc(N)nc(N)c2n1)c1ccc(C(=O)N[C@@H](CCC(=O)N[C@@H](CCC(=O)N[C@@H](CCC(=O)O)C(=O)O)C(=O)O)C(=O)O)cc1

Molecule: O=C1c2c(O)ccc(O)c2C(=O)c2c(NCCNCCO)ccc(NCCNCCO)c21 [MITOXANTRONE]
Activity [3]: 50%

Activity [2]: substrate []
Molecule: CN(Cc1cnc2nc(N)nc(N)c2n1)c1ccc(C(=O)N[C@@H](CCC(=O)N[C@@H](CCC(=O)N[C@@H](CCC(=O)N[C@@H](CCC(=O)O)C(=O)O)C(=O)O)C(=O)O)C(=O)O)cc1

B1: Broad substrate specificity ATP-binding cassette transporter ABCG2 (Homo sapiens) (protein)
chain: T1 sequence (Q9UNQ0 whole entry)
Km [4]: 680 µM
